# Data reported in PubChem BioAssay AID1918947 (Molecular Pharmacology Branch, DTP, NCI, 2023).
# Where “and” joins values, the source holds several entries; their conditions need not be identical. Identical values can stand only once.
# System: A498 complex spheroid viability
# Assay: Anticancer human tumor A498 cell line growth inhibition;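 further: spheroids exposed to agents for seven days before readout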;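 on viability, T/C: 100% = DMSO vehicle-treated spheroids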
# Conditions: for viability, T/C: stronger effect = lower value
# Excerpt: Multicellular complex tumor spheroid response to LSD1 Inhibitor Iadademstat in combination with a variety of drugs and investigational agents in selected tumor cell lines
# The current study was undertaken to assess response to LSD1 inhibitors in combination with standard-of-care drugs and investigational agents in solid tumor complex spheroid models as well as in the K-562 leukemia. Complex spheroids include a stromal component modeled by human endothelial cells (HUVEC) and fibroblasts modeled by human mesenchymal stem cells (MSCs). The concentration ranges selected for each drug and investigational agent were based upon clinically achievable concentrations if the clinical Cmax of the agent was known.
# Compounds. The drugs and investigational agents used in this study are listed on Table 1. All of the agents used, including staurosporine (NSC755774) and gemcitabine (NSC613327), were obtained from the Developmental Therapeutics Program, NCI. FDA-approved anticancer drugs are available from the NCI at http://dtp.nci.nih.gov/branches/dscb/oncology_drugset_explanation.html. Drugs and investigational agents were >95% pure by proton nuclear magnetic resonance (NMR) and liquid chromatography/mass spectrometry (LC/MS). Stock solutions were prepared at 400x in DMSO, stored at -70 degrees C, and diluted in fresh medium prior to their use. The final concentration of DMSO in cell culture wells never exceeded 0.25% (v/v). The FDA-approved anticancer drug set is available from the Developmental Therapeutics Program at https://dtp.cancer.gov/organization/dscb/obtaining/available_plates.htm. All drugs and investigational agents were tested over a range starting from a high concentration at or near the clinical Cmax and decreasing in half-log increments. If the clinical Cmax for an agent had not been determined, the highest concentration tested was 10 microM.
# Cell Lines. The patient-derived cancer cell (PDC) lines: 292921-168-R-J2-PDC, K24384-001-R-PDC, and 521955-158-R2-J5-PDC pancreatic carcinomas, 556581-035-R-J1 ovarian carcinoma, 324938-238-R-J1-PDC, 855422-203-R-J1-PDC and 883617-216-R-J1-PDC urothelial bladder carcinomas, 743489-274-T-PDC renal cell carcinoma, 138582-R-J1 Merkel cell tumor, K60290-347-R-J1 and K57222-313-R-J1-PDC glioblastomas, 653999-131-R-J2-PDC, LG0703-F948-PDC, and 349418-098-R-PDC non-small cell lung carcinomas, 885512-296-R-J2-PDC, 171881-019-R-J1-PDC breast carcinomas and 186277-243-T-J2-PDC and 233499-124-R-J2-PDC colon carcinomas were obtained from the NCI Patient-Derived Models Repository (PDMR, https://pdmr.cancer.gov). The established cell lines NCI/ADR-RES (RRID:CVCL_14520 and OVCAR-5 (RRID:CVCL_1628) ovarian carcinomas, 786-O (RRID:CVCL_1051) and A498 (RRID:CVCL_A498) renal cell carcinoma, NCI-H211 (ATCC, cat. CRL-5824; RRID:CVCL_1529), NCI-H196 (ATCC, cat. CRL-5823, RRID:CVCL_1509), SW 1271 (ATCC, cat. CRL-2177, RRID:CVCL_1716) and NCI-H1876 (ATCC, cat. CRL-5902, RRID:CVCL_1503) small cell lung carcinomas, MDA-MB-231 (RRID:CVCL_0062) and MDA-MB-468 (RRID:CVCL_0419)breast carcinomas (10-12). Pooled donor human umbilical vein endothelial cells (HUVEC, Lonza, cat. CC-2519) and human mesenchymal stem cells (hMSC, Lonza, cat. PT-2501) were purchased from Lonza (Walkersville, MD).
# Cell Culture. All cells were maintained in an incubator at 37 degrees C and 5% CO2 with 95% humidity. The PDC lines were cultured according to standard operating procedures established by the NCI PDMR (https://pdmr.cancer.gov). Briefly all PDCs were thawed and cultured in Matrigel-coated flasks prepared with a working solution of 1X Ham's F-12 nutrient mix, without supplementation (Invitrogen, Waltham, MA, cat. 11765054), 100 U/mL penicillin-streptomycin (Invitrogen, cat. 15140122), and 2.5% Matrigel (Corning Inc., Corning, NY, cat. 354248) for the first three passages. […]
# [1] = curve of first compound, second compound 0.1 µM
# [2] = curve of first compound, second compound 0.316 µM
# [3] = curve of first compound, second compound 1 µM
# [4] = curve of first compound, second compound 3.16 µM
# [5] = curve of first compound, second compound 10 µM
smiles,measurement,setting,value
CCc1c2c(nc3ccc(O)cc13)-c1cc3c(c(=O)n1C2)COC(=O)[C@]3(O)CC + NC1CCC(NC2CC2c2ccccc2)CC1,IC50,[1],< 0.000949 µM
same,IC50,[2],< 0.000949 µM
same,IC50,[3],< 0.000949 µM
same,IC50,[4],< 0.000949 µM
same,IC50,[5],< 0.000949 µM
same,"viability, T/C","second compound 0.1 µM, first compound 0.000949 µM",44.1%
same,"viability, T/C","second compound 0.1 µM, first compound 0.003 µM",34.7%
same,"viability, T/C","second compound 0.1 µM, first compound 0.00949 µM",26.7%
same,"viability, T/C","second compound 0.1 µM, first compound 0.03 µM",3.44%
same,"viability, T/C","second compound 0.1 µM, first compound 0.0949 µM",0.09%
same,"viability, T/C","second compound 0.1 µM, first compound 0.3 µM",0.11%
same,"viability, T/C","second compound 0.316 µM, first compound 0.000949 µM",46%
same,"viability, T/C","second compound 0.316 µM, first compound 0.003 µM",33%
same,"viability, T/C","second compound 0.316 µM, first compound 0.00949 µM",26.4%
same,"viability, T/C","second compound 0.316 µM, first compound 0.03 µM",3.19%
same,"viability, T/C","second compound 0.316 µM, first compound 0.0949 µM",0.19%
same,"viability, T/C","second compound 0.316 µM, first compound 0.3 µM",0.12%
same,"viability, T/C","second compound 1 µM, first compound 0.000949 µM",47.1%
same,"viability, T/C","second compound 1 µM, first compound 0.003 µM",37.2%
same,"viability, T/C","second compound 1 µM, first compound 0.00949 µM",25.6%
same,"viability, T/C","second compound 1 µM, first compound 0.03 µM",3.37%
same,"viability, T/C","second compound 1 µM, first compound 0.0949 µM",0.22%
same,"viability, T/C","second compound 1 µM, first compound 0.3 µM",0.47%
same,"viability, T/C","second compound 3.16 µM, first compound 0.000949 µM",44.5%
same,"viability, T/C","second compound 3.16 µM, first compound 0.003 µM",34.5%
same,"viability, T/C","second compound 3.16 µM, first compound 0.00949 µM",27.7%
same,"viability, T/C","second compound 3.16 µM, first compound 0.03 µM",1.91%
same,"viability, T/C","second compound 3.16 µM, first compound 0.0949 µM",0.05%
same,"viability, T/C","second compound 3.16 µM, first compound 0.3 µM",0.11%
same,"viability, T/C","second compound 10 µM, first compound 0.000949 µM",42.5%
same,"viability, T/C","second compound 10 µM, first compound 0.003 µM",31%
same,"viability, T/C","second compound 10 µM, first compound 0.00949 µM",26%
same,"viability, T/C","second compound 10 µM, first compound 0.03 µM",4.35%
same,"viability, T/C","second compound 10 µM, first compound 0.0949 µM",0.12%
same,"viability, T/C","second compound 10 µM, first compound 0.3 µM",0.17%
Nc1ncn(C2CC(O)C(CO)O2)c(=O)n1 (configuration not stated) + NC1CCC(NC2CC2c2ccccc2)CC1,IC50,[1],0.177 µM
same,IC50,[2],0.279 µM
same,IC50,[3],0.218 µM
same,IC50,[4],0.195 µM
same,IC50,[5],0.224 µM
same,"viability, T/C","second compound 0.1 µM, first compound 0.00316 µM",89.7%
same,"viability, T/C","second compound 0.1 µM, first compound 0.01 µM",88.5%
same,"viability, T/C","second compound 0.1 µM, first compound 0.0316 µM",88.5%
same,"viability, T/C","second compound 0.1 µM, first compound 0.1 µM",60.7%
same,"viability, T/C","second compound 0.1 µM, first compound 0.316 µM",40%
same,"viability, T/C","second compound 0.1 µM, first compound 1 µM",36.7%
same,"viability, T/C","second compound 0.316 µM, first compound 0.00316 µM",93.1%
same,"viability, T/C","second compound 0.316 µM, first compound 0.01 µM",95.7%
same,"viability, T/C","second compound 0.316 µM, first compound 0.0316 µM",90.7%
same,"viability, T/C","second compound 0.316 µM, first compound 0.1 µM",72.9%
same,"viability, T/C","second compound 0.316 µM, first compound 0.316 µM",47.3%
same,"viability, T/C","second compound 0.316 µM, first compound 1 µM",40.5%
same,"viability, T/C","second compound 1 µM, first compound 0.00316 µM",89.2%
same,"viability, T/C","second compound 1 µM, first compound 0.01 µM",89.7%
same,"viability, T/C","second compound 1 µM, first compound 0.0316 µM",89.2%
same,"viability, T/C","second compound 1 µM, first compound 0.1 µM",62.4%
same,"viability, T/C","second compound 1 µM, first compound 0.316 µM",46.4%
same,"viability, T/C","second compound 1 µM, first compound 1 µM",34.9%
same,"viability, T/C","second compound 3.16 µM, first compound 0.00316 µM",82.5%
same,"viability, T/C","second compound 3.16 µM, first compound 0.01 µM",88.4%
same,"viability, T/C","second compound 3.16 µM, first compound 0.0316 µM",78.4%
same,"viability, T/C","second compound 3.16 µM, first compound 0.1 µM",66.6%
same,"viability, T/C","second compound 3.16 µM, first compound 0.316 µM",38.1%
same,"viability, T/C","second compound 3.16 µM, first compound 1 µM",29.3%
same,"viability, T/C","second compound 10 µM, first compound 0.00316 µM",78%
same,"viability, T/C","second compound 10 µM, first compound 0.01 µM",78.2%
same,"viability, T/C","second compound 10 µM, first compound 0.0316 µM",79.9%
same,"viability, T/C","second compound 10 µM, first compound 0.1 µM",68.4%
same,"viability, T/C","second compound 10 µM, first compound 0.316 µM",42.2%
same,"viability, T/C","second compound 10 µM, first compound 1 µM",31.9%
COc1cc(Nc2ncc3c(n2)-c2ccc(Cl)cc2C(c2c(F)cccc2OC)=NC3)ccc1C(=O)O,"viability, T/C",compound 0.00316 µM,95.5% and 94.2%
same,"viability, T/C",compound 0.01 µM,84.6% and 64.9%
same,"viability, T/C",compound 0.0316 µM,76.9% and 71.9%
same,"viability, T/C",compound 0.1 µM,66.4% and 62.6%
same,"viability, T/C",compound 0.316 µM,60% and 54.1%
same,"viability, T/C",compound 1 µM,50.4% and 40.4%
same,IC50,curve of compound,> 1 µM and 0.381 µM
